Measured values reported in paper PMC3020970, “K70Q Adds High-Level Tenofovir Resistance to “Q151M Complex” HIV Reverse Transcriptase through the Enhanced Discrimination Mechanism” (PLoS ONE, 2011).
Like-named read-outs stand apart in the source and are kept apart here. Marks after values point to notes of the source that are not given here.

Tests used:
Assay in all cases: Primer extension assay
Format in all cases: biochemical
[1] = target: T1, HIV-1 RT Q151Mc (Human immunodeficiency virus type 1 group M subtype B, UniProt P03366, A661V/F676L/F715Y/Q750M/V674I)
T1 construct: made in house; host or cells: Escherichia coli BL21
Experimental: (§1) RT sequences coding for the p66 and p51 subunits of BH10 were cloned in the pRT dual vector, which is derived from pCDF-2 with LIC duet minimal adaptor (Novagen), using restriction sites PpuMI and SacI for the p51 subunit, and SacII and AvrII for the p66 subunit. RT was expressed in the Escherichia coli strain BL21 (Invitrogen) and purified by nickel affinity chromatography and MonoQ anion exchange chromatography. RT concentrations were determined spectrophotometrically based on absorption at […] using a calculated extinction coefficient (261,610 M^−1 cm^−1). The active site concentration of the various RT preparations was calculated as described below.
(§2) DNA oligomers were synthesized by Integrated DNA Technologies (Coralville, IA). An 18-nucleotide DNA primer fluorescently labeled with Cy3 at the 5′ end (P18; 5′-Cy3 GTC CCT GTT CGG GCG CCA-3′) and a 100-nucleotide DNA template (T100; 5′-TAGTGTGTGCCCGTCTGTTGTGTGACTCTGGTAACTAGAGATCCCTCAGACCCTTTTAGTCAGTGTGGAAAATCTCTAGCAGTGGCGCCCGAACAGGGAC-3′) were used in primer extension assays. An 18-nucleotide DNA primer 5′-labeled with Cy3 (P18; 5′-Cy3 GTC ACT GTT CGA GCA CCA-3′) and a 31-nucleotide DNA template (T31; 5′- CCATAGCTAGCATTGGTGCTCGAACAGTGAC-3′) were used in the ATP rescue assay and pre-steady state kinetic experiments.
(§3) The enzyme (20 nM active sites) was incubated with 20 nM template/primer at 37°C in a buffer containing 50 mM Tris-HCl, pH 7.8 and 50 mM NaCl. The DNA synthesis was initiated by the addition of 1 µM dNTP and 10 mM MgCl2. The primer extension assays were carried out in the presence or absence of varying concentrations of TFV-DP. The reactions were terminated after 15 min by adding equal volume of 100% formamide containing traces of bromophenol blue. The extension products were resolved on a 7 M urea-15% polyacrylamide gel, and visualized by phosphor-imaging (FLA 5100, Fujifilm, Tokyo). We followed standard protocols that utilize the Multi Gauge software (Fujifilm) to quantitate primer extension, [44]. The results from dose response experiments were plotted using Prism 4 (GraphPad Software Inc., CA) and IC50 values for TFV-DP were obtained at midpoint concentrations.

[2] = target: T2, HIV-1 RT K70Q (Human immunodeficiency virus type 1 group M subtype B, UniProt P03366, K669Q)
T2 construct: made in house; host or cells: Escherichia coli BL21
Experimental: as §1, §2, §3

[3] = target: T3, HIV-1 RT WT (Human immunodeficiency virus type 1 group M subtype B, UniProt P03366)
T3 construct: made in house; host or cells: Escherichia coli BL21
Experimental: as §1, §2, §3

[4] = target: T4, HIV-1 RT K70Q/Q151Mc (Human immunodeficiency virus type 1 group M subtype B, UniProt P03366, A661V/F676L/F715Y/K669Q/Q750M/V674I)
T4 construct: made in house; host or cells: Escherichia coli BL21
Experimental: as §1, §2, §3

[5] = with 3.5 mM ATP, read-out: IC50 of TFV-DP, with ATP
[6] = without ATP, read-out: IC50 of TFV-DP, without ATP

In the case of `CC(Cn1cnc2c(N)ncnc21)OCP(=O)(O)OP(=O)(O)OP(=O)(O)O` (stereo in doubt) [TFV-DP, tenofovir-diphosphate], the “Excision enhancement due to ATP (IC50 with ATP/IC50 without ATP)” value [1] is reported as 2.7 fold, the IC50 [1, 5] is reported as 4 ± 0.341 µM and the “Fold increase in IC50 vs WT RT, with ATP” value ([1]; with ATP) is reported as “(2.1) fold”. For the same compound, the “Fold increase in IC50 vs WT RT, without ATP” value (shortened to “Fold increase … without ATP”) ([1]; without ATP) was “(2.3) fold”, the IC50 [1, 6] was 1.5 ± 0.09 µM and the “Excision enhancement due to ATP (IC50 with ATP/IC50 without ATP)” value [2] was 2.9 fold. For the same compound, the IC50 [2, 5] was 2.31 ± 0.27 µM, the “Fold increase in IC50 vs WT RT, with ATP” value ([2]; with ATP) was “(1.2) fold” and the “Fold increase … without ATP” value ([2]; without ATP) was “(1.3) fold”. The IC50 [2, 6] was 0.802 ± 0.099 µM, the “Excision enhancement due to ATP (IC50 with ATP/IC50 without ATP)” value [3] was 2.9 fold and the IC50 [3, 5] was 1.85 ± 0.197 µM. For the same compound, the “Fold increase in IC50 vs WT RT, with ATP” value ([3]; with ATP) was “(1) ^b fold”, the “Fold increase … without ATP” value ([3]; without ATP) was “(1) ^b fold” and the IC50 [3, 6] was 0.641 ± 0.083 µM. For the same compound, the “Excision enhancement due to ATP (IC50 with ATP/IC50 without ATP)” value [4] was 2.9 fold, the IC50 [4, 5] was 7 ± 0.226 µM and the “Fold increase in IC50 vs WT RT, with ATP” value ([4]; with ATP) was “(3.8) fold”. For the same compound, the “Fold increase … without ATP” value ([4]; without ATP) was “(3.7) fold” and the IC50 [4, 6] was 2.39 ± 0.353 µM.
